# What was measured:
# [1] = tested on: tissue factor initiated clotting of platelet poor plasma; test: plasma clotting assay using CTI (Example 3); format: biochemical, human; conditions: patients on stabilized coumadin therapy
# Procedure: Blood was drawn directly into sterile buffered 3.8% sodium citrate tubes (Vacutainer brand, product # L10318-00, Becton-Dickinson and Co.), and the tubes were centrifuged at 4227 RCF for 3 minutes (Baxter Stat 60 bench top centrifuge). The supernatant was decanted and an automated PT was established for each patient sample. Platelet poor samples were isolated by further centrifugation for 10 minutes at 14,000 rpm, and the top two-thirds of the plasma was transferred to a Sarstedt rectic cup where it was stored for subsequent analysis at −80° C. Prior to thawing, CTI (stock concentration 1-5 mg/mL) was layered onto the frozen sample in an amount sufficient to give a final concentration of 100 μg CTI/mL plasma. Such citrated plasma containing CTI was used within 0-2 hours (stored at 2-8° C.).
# Platelet poor plasma collected as described in Example 1 or 2 from either patients or normal donors, was delivered (100 μL) into a 12×75 mm disposable polystryrene tube (VWR Scientific, product #60818-361). Calcium chloride (10 μL, 300 mM CaCl2) was added, followed immediately by an amount of concentrated PSPC (prepared as described above, typical stock concentration ˜1-5 mM in HBS, pH 7.4) so that the final concentration of lipid in the mixture was […]. To initiate the reaction at zero time, 20 μL of stock tissue factor reagent (described below) was added to a final TF concentration of 1 nM. […]
# [2] = tested on: tissue factor initiated clotting of recalcified citrated plasma; test: extended plasma prothrombin time (XpPT) assay; format: biochemical, human; conditions: for clot time of patient plasma: patients on Coumadin therapy, 0.5 nM TF, 100 μg/ml CTI; for XpPT clot time of patient plasma (s.e.m.): patients on moderate Coumadin therapy, 0.5 nM tissue factor
# Procedure: The result was a standard system of coagulation evaluation in which a plasma sample collected in 11 mM trisodium citrate was frozen (standard pathology laboratory collection system) defrosted in the presence of 100 μgm/ml corn trypsin inhibitor (final concentration) and the assay ultimately conducted described in Materials and Methods section below. The final concentrations in the tissue factor clotting sample included 100 μgm/ml CTI 30 mM CaCl2, 50 μM 75% PC:25PS vesicles and 0.5 nM tissue factor. This system is referred to as the XpPT assay.
# To study the effects of heparin, 0-3 U/mL (10,000 u/mL stock) were titrated into normal, CTI (100 μg/mL), citrated plasma. Into reaction cuvettes, […] of plasma, 10 μL of 300 mM CaCl2 (final, 30 mM) and […] of 3.72 mM PCPS (final concentration, 50 μM) were added. Appropriate volumes of heparin (10,000 U/mL) were added to give 0.25, 0.5, 1.0, 1.5, 2.0, and 3.0 U/mL final concentration in 100 μL plasma. The reaction was initiated by adding 10 μL of 5 nM rTF (0.5 nM final concentration).
# The assay was used along lines discussed previously except that TFPI was added (50 μg/mL stock) at 5.0, 10.0, 20.0, 60 nM final concentration and initiating with 10 μL of 5.0 nM rTF (0.5 nM).
# Citrated platelet poor plasma (PPP) from a normal pool, patient cohorts, or factor V, VII, VIII and IX deficient pools was treated with 3.7 μL of 2.72 mg/mL (100 μg/mL final concentration) corn trypsin inhibitor (CTI) prior to thawing at 37° C. The thawed plasma was spun at 16,000×g (Eppendorf model 5415-C bench top centrifuge) for 10 minutes. Clot times were done by either a manual, tilt-tube method or using a Stago ST-4 detector. (Results were equivalent with each method.) For both methods test tubes made of clear polystyrene or similar clear plastic were used.
# Reaction cuvettes for the ST4 clot detector were equilibrated to 37° C. (3 minutes) in the appropriate incubation chambers. Calcium equilibration was started by adding 10 μL of 300 mM CaCl2 (final, 30 mM) to 100 μL of the CTI treated citrated PPP (normal, patient or deficient) for 15 seconds followed by 1.3 μL of 3.72 mM PCPS (25:75 PC/PS) (final concentration, 50 μM) 15 seconds. The reaction was initiated by adding 10 μL of 5.0 nM rTF (final 0.5 nM TF) or 2.5 μL of 0.5 nM rTF (12.5 pM final). End point clot times were determined visually or mechanically on the ST4 using the PTT mode, no incubation, with an upper end timing limit of 999 seconds.
# hemophilia C blood = test: coagulation in hemophilia C (factor XI deficient) whole blood with factor XI replacement; format: cell-based, human; conditions: for clot time: CTI 48 μg/mL
# Text: Table 1 below reports the clot times for coagulation in factor XI-deficient blood, deficient blood with replacement and normal whole blood initiated at 25 and 5 pM TF with suppression of contact activation by corn trypsin inhibitor. […] Data are given for each of the experiments described in the text, along with phlebotomy control values i(in parentheses) for clotting in the absence of added tissue factor initiator. […] In all experiments, including controls, factor XIIa activity was suppressed by the addition of corn trypsin inhibitor at the level of 48 μg/mL of blood (see Methods for brief description of the experiments). For the experiments with 25 pM initiator, patient A was the donor; in the 5 pM experiments, the donor was patient B.
# The protocol employed is a modification of Rand, M. D., et al. supra performed under the supervision of one of the authors (R. F. B.) at the Clinical Research Center, Fletcher Allen Health Care (Burlington, Vt.). Clotting in freshly drawn, non-anticoagulated whole blood was carried out in 32 capped polystyrene culture tubes as described, except that two series were performed per experiment (16 tubes/series). Reagents were loaded in the following amounts: corn trypsin inhibitor (all tubes, to give 50 μg/mL blood); relipidated TF (lipid:protein=2000) in HBS with 5 mM calcium (all tubes in each series except phlebotomy control tube, to give 25 or 5 pM TF/mL blood); factor VIII or factor XI (all tubes, replacement series only, to give 1 U/mL final); equivalent volume factor VIII/XI dilution buffer (HBS, pH 7.4, all tubes, deficiency series only). No more than 45 μL reagent were loaded in each tube. The zero tube of each series was pre-treated using 1 mL inhibitor cocktail (containing 50 mM EDTA and 20 mM benzamidine-HCl in HBS, pH 7.4), and 10 μL of 10 mM FPRck (diluted in 0.01 M HCl).
# Patient or normal donor blood was drawn by venipuncture under a protocol approved by the Human Studies Committee at the University of Vermont, as described Rand, M. D., et al. supra. Clotting was initiated by delivery into the reagent-loaded tubes, and with periodic quenching of the tubes with inhibitor cocktail and FPRck as described above. Two series of quenched samples were obtained following reaction progress up to 20 minutes after initiation; both reducing (1% β-mercaptoethanol) and non-reducing SDS-PAGE samples were prepared from each tube (60 μL supernatant, 190 μL 2% SDS-PAGE sample solution Rand, M. D., et al. supra heated exactly 5 minutes at 98+/−2° C.). An aliquot from each tube was filtered to remove cellular contaminants for ostleonectin assays (200 μL, 0.2 μm AcroDisc, Gelman Sciences, Ann Arbor, Mich.). The remaining serum and cell pellets/clots were aliquotted to screw cap tubes, frozen and stored at −20° C. for immunoblot or immunoassay analysis.
# Commercial ELISAs for fibrinopeptide A (FPA), thrombin-antithrombin-III (TAT) and platelet α-granule release (osteonectin) were performed according to manufacturers protocols, with corrections for sample dilution by added quench solution (1.00 mL) and hematocrit (typically 40% of the total blood volume). For analysis of factor Va, samples were separated on SDS-PAGE according to Laemmli, U.K. (1970) Nature 227: 680 as modified by our laboratory Rand, M. D., et al. (1996) supra. Separate gels were run for heavy chain and light chain analysis. Gels were loaded with a pre-stained molecular weight standard mixture (14-200 kDa) and dilute standards (3 samples) allowing comparison and quantitation of analyte amounts horizontally on the immunoblots. Transfer from the gel to nitrocellulose (BioRad, Hercules, Calif.) was performed for 1.5-3 hours via an SDS-free tank transfer procedure as described (Towbin H, et al. (1979) Proc Natl Acad Sci. (USA) 76: 4350 and Gallagher, S. et al. (1993) Current Protocols in Molecular Biology. J. Wiley and Sons. 10.8.1.) with subsequent immunoblot analysis according to Rand, M. D., et al.(1996) supra. […]
# [3] = tested on: factor XI deficient plasma; test: tissue factor dependence of clotting in factor XI-deficient plasma; format: biochemical, human; conditions: CTI, factor XI 1 U/mL
# Procedure: FIG. 3 is explained as follows: clot time in factor XI deficient plasma (<1%) was measured as a function of tissue factor and […] (as described in Methods). The ordinate is shown in seconds (left-hand axis) and minutes (right-hand axis). Two curves are presented: one for factor XI deficient plasma without factor XI replacement (<1%, filled squares) and a second curve for the same plasma with 1 U/mL factor XI (25 nM, filled circles). To connect the data, smooth curves were drawn which meet near 24 pM TF. The curves become increasingly divergent as tissue factor concentration is reduced to 6 pM TF, where the difference is most pronounced.
# Relipidated tissue factor reagent (see above) was rehydrated (200 μl) and diluted with HBS/calcium (2 mM) to obtain a stock reagent containing 552 pM TF and 1.10 μM PCPS. This initial stock was further diluted with PCPS (1. 10 μM) in HBS/calcium (2 mM) to obtain a set of working TF stock concentrations ranging from 17.25 to 552 pM TF at constant lipid concentration. The assay was performed according to the following protocol: Into a polystyrene tube (12×75 mm) was added 200 μL human plasma (XI-deficient, <1% XI:C; or XI-deficient with factor XI replaced at 3.5 μg/mL, 100 U/dL) and 10 μL corn trypsin inhibitor (1.15 mg/mL in HBS). […]
# [4] = factor XI replacement, 25 pM TF
molecule,measurement,setting,value
CC(=O)CC(c1ccccc1)c1c(O)c2ccccc2oc1=O (stereo not drawn) [Coumadin],clot time of patient plasma,"[1]; INR of 2.0, normal (INR 1) 60-75 seconds",215 to 240 s
same,clot time of patient plasma,[1]; INR of 5.0,700 to 800 s
same,clot time of patient plasma,"[2]; INR of 2, normal 82±6s",211 ± 8 s
same,clot time of patient plasma,[2]; INR of 4.3,616 ± 9 s
same,XpPT clot time of patient plasma (s.e.m.),"[2]; INR of 2.0, normal 82.5±0.63 seconds",212.6 ± 2.2 s
same,XpPT clot time of patient plasma (s.e.m.),[2]; INR of 4.3,610.8 ± 4.2 s
factor XI: human factor XI used for replacement at 1 U/mL,clot time,"hemophilia C blood; XI-deficient blood (patient A) with factor XI replacement 1 U/mL, 25 pmol/L TF",3.7 min
same,"phlebotomy control clot time, −TF","hemophilia C blood; XI-deficient blood (patient A) with factor XI replacement, CTI, no TF","(control, −TF > 20.3 min.)"
same,clot time,"hemophilia C blood; XI-deficient blood (patient B) with factor XI replacement 1 U/mL, 5 pmol/L TF",9.7 min
same,clotting time with factor XI and corn trypsin inhibitor in the absence of TF,hemophilia C blood; factor XI deficient blood,> 20 min
same,FPA formation rate,"hemophilia C blood; factor XI replacement, 5 pM TF",7.4 µM/min
same,TAT rate at clot time,"hemophilia C blood; factor XI replacement, 5 pM TF",119 nM/min
same,final level of TAT,"hemophilia C blood; factor XI replacement, 5 pM TF",600 nM
same,osteonectin release by clot time,"hemophilia C blood; factor XI replacement, 5 pM TF",67%
same,thrombin generation rate,"hemophilia C blood; factor XI replacement, 5 pM TF",119 nmol TAT/L/min
same,time after clot time to complete fibrinogen conversion,"hemophilia C blood; factor XI replacement, 5 pM TF",2 to 2.5 min
same,time of maximum factor Va heavy chain,"hemophilia C blood; factor XI replacement, 5 pM TF",~12 min
same,final TAT concentration,hemophilia C blood; [4],950 nM
same,maximum rate of FPA release,hemophilia C blood; [4],7.3 µM/min
same,rate of thrombin generation,hemophilia C blood; [4],85 nmol·L/min
same,thrombin generation rate,hemophilia C blood; [4],85 nmol TAT/L/min
same,shortening of clot time by factor XI replacement,"hemophilia C blood; hemophilia C blood, 5 pM TF",6 min
same,difference in clot time without versus with factor XI,[3]; 6 pM TF,5.7 min
same,difference in clot time without versus with factor XI,[3]; 24 pM TF,0.467 min
